Experimental data as given in the NIST ThermoML archive (doi:10.1021/je200673a).

Experiment: molar heat capacity at constant pressure
Settings: 101.33 kPa, Vacuum adiabatic calorimetry

C(#Cc1ccccc1)c1ccccc1 [1,2-diphenylethyne]
molar heat capacity at constant pressure [J/K/mol]
Settings	Crystal	Liquid
122.93 K	102.01	–
123.75 K	102.53	–
124.57 K	103.09	–
125.39 K	103.65	–
126.22 K	103.97	–
127.04 K	104.54	–
127.87 K	104.88	–
128.69 K	105.58	–
129.52 K	106.14	–
130 K	106.33	–
130.34 K	106.59	–
131.19 K	107.21	–
132.02 K	107.62	–
132.85 K	107.99	–
133.68 K	108.55	–
134.51 K	108.88	–
135.34 K	109.34	–
136.17 K	110.18	–
137.01 K	110.88	–
137.84 K	111.19	–
138.67 K	111.61	–
139.51 K	112.13	–
140 K	112.5	–
140.35 K	112.75	–
141.18 K	113.14	–
142.02 K	113.86	–
142.86 K	114.26	–
143.7 K	114.81	–
144.56 K	115.47	–
145.4 K	115.88	–
146.24 K	116.41	–
147.08 K	117.03	–
147.93 K	117.53	–
148.77 K	118.01	–
149.61 K	118.61	–
150 K	118.79	–
150.46 K	119.09	–
151.31 K	119.49	–
152.15 K	120.1	–
153 K	120.73	–
153.85 K	121.21	–
154.7 K	121.63	–
155.55 K	122.47	–
156.4 K	122.86	–
157.25 K	123.14	–
158.14 K	124.01	–
158.99 K	124.43	–
159.85 K	125.3	–
160 K	125.14	–
160.7 K	125.66	–
161.56 K	125.9	–
162.42 K	126.63	–
163.28 K	127.28	–
164.14 K	127.86	–
165 K	128.31	–
165.86 K	128.78	–
166.72 K	129.29	–
167.58 K	130.02	–
168.45 K	130.59	–
169.31 K	131.32	–
170 K	131.53	–
170.18 K	131.71	–
171.05 K	132.15	–
171.96 K	132.79	–
172.83 K	133.42	–
173.7 K	133.85	–
174.57 K	134.6	–
175.44 K	135.11	–
176.31 K	135.5	–
177.19 K	135.99	–
178.06 K	136.73	–
178.94 K	137.42	–
179.82 K	137.82	–
180 K	138	–
180.7 K	138.43	–
181.58 K	138.91	–
182.46 K	139.54	–
183.34 K	140.11	–
184.22 K	140.8	–
185.11 K	141.42	–
186.05 K	142.12	–
186.93 K	142.62	–
187.82 K	143.19	–
188.71 K	143.74	–
189.6 K	144.35	–
190 K	144.57	–
190.5 K	144.84	–
191.39 K	145.31	–
192.29 K	146.01	–
193.18 K	146.68	–
194.08 K	147.37	–
194.98 K	147.95	–
196.78 K	149.26	–
197.68 K	149.46	–
198.59 K	150.29	–
199.5 K	151.03	–
200 K	151.06	–
200.7 K	151.27	–
202.04 K	151.99	–
203.39 K	152.98	–
204.73 K	154.54	–
206.08 K	154.9	–
207.42 K	155.84	–
208.77 K	156.73	–
210 K	157.57	–
210.11 K	157.51	–
211.46 K	158.55	–
212.8 K	159.5	–
214.14 K	160.32	–
215.49 K	161.29	–
216.83 K	162.37	–
218.17 K	163	–
219.51 K	164.34	–
220 K	164.63	–
220.86 K	165.39	–
222.28 K	166.49	–
223.62 K	167.21	–
224.96 K	168.09	–
226.3 K	169.06	–
227.64 K	170.12	–
228.97 K	171	–
230 K	171.85	–
230.31 K	171.96	–
231.65 K	173.01	–
232.99 K	173.91	–
234.32 K	174.98	–
235.65 K	175.95	–
236.99 K	176.85	–
238.33 K	177.98	–
239.66 K	179.01	–
240 K	179.11	–
240.99 K	179.99	–
242.32 K	180.88	–
243.73 K	181.99	–
245.07 K	182.85	–
246.4 K	183.79	–
247.73 K	184.64	–
249.06 K	185.75	–
250 K	186.45	–
250.39 K	185.54	–
251.71 K	187.74	–
253.03 K	188.91	–
254.36 K	189.53	–
255.68 K	190.6	–
257 K	191.87	–
258.32 K	192.68	–
259.65 K	193.82	–
260 K	193.93	–
260.97 K	194.81	–
262.28 K	195.65	–
263.6 K	197.01	–
264.98 K	198.01	–
266.3 K	198.7	–
267.61 K	199.72	–
268.93 K	200.72	–
270 K	201.56	–
270.24 K	201.85	–
271.55 K	202.64	–
272.86 K	203.72	–
274.17 K	204.75	–
275.47 K	205.78	–
276.77 K	206.87	–
278.07 K	207.63	–
279.37 K	208.98	–
280 K	209.29	–
280.67 K	209.89	–
281.97 K	210.65	–
283.26 K	211.51	–
284.56 K	212.46	–
285.9 K	213.85	–
287.2 K	214.7	–
288.49 K	216.02	–
289.78 K	216.96	–
290 K	216.99	–
291.06 K	217.78	–
292.34 K	219.03	–
293.62 K	219.44	–
294.9 K	220.27	–
296.17 K	221.66	–
297.45 K	223.35	–
298.15 K	223.14	–
298.72 K	223.61	–
299.98 K	224.36	–
300 K	224.51	–
301.47 K	225.51	–
303.12 K	227.1	–
304.78 K	228.38	–
306.45 K	228.99	–
308.12 K	230.51	–
309.79 K	231.08	–
310 K	231.76	–
311.46 K	232.91	–
313.14 K	234.02	–
314.83 K	234.92	–
316.52 K	236.14	–
318.22 K	238.29	–
319.93 K	238.52	–
320 K	238.87	–
321.63 K	240.17	–
323.34 K	241.21	–
325.06 K	242.48	–
330 K	245.96	–
332.03 K	247.4	302
340 K	–	303.79
348.64 K	–	304.58
348.68 K	–	305.37
350 K	–	306.04
350.47 K	–	306.11
350.59 K	–	307.42
352.28 K	–	307.07
352.61 K	–	306.03
354.1 K	–	304.34
354.59 K	–	307.75
355.9 K	–	307.73
356.6 K	–	308.43
357.73 K	–	308.85
358.63 K	–	305.76
359.56 K	–	309.14
360 K	–	308.41
360.65 K	–	308.73
361.57 K	–	306.43
362.7 K	–	310.22
363.41 K	–	309.69
364.77 K	–	310.47
365.26 K	–	310.84
367.13 K	–	305.78
367.19 K	–	311.76
369.03 K	–	310.48
369.32 K	–	308.58
370 K	–	309.93
370.91 K	–	308.47
371.44 K	–	311.8
